Results on one compound are retold here after patent US9212139B2, “Aryl substituted indoles and their use as blockers of sodium channels” (Purdue Pharma, L.P., priority 2010, dated 2015).

The target of test [1] is human Nav1.7 (Homo sapiens (Human), UniProt Q15858). The test is described as follows: FLIPR or FLIPR TETRA sodium dye assay with KCl and test article pre-incubation. Conditions: sodium dye assay with KCl; recombinant human Nav1.7 in HEK293 cells; value ± SEM. It is filed as cell-based.
Chain of human Nav1.7 (Q15858 other isoform, or with tags, fused parts or gaps): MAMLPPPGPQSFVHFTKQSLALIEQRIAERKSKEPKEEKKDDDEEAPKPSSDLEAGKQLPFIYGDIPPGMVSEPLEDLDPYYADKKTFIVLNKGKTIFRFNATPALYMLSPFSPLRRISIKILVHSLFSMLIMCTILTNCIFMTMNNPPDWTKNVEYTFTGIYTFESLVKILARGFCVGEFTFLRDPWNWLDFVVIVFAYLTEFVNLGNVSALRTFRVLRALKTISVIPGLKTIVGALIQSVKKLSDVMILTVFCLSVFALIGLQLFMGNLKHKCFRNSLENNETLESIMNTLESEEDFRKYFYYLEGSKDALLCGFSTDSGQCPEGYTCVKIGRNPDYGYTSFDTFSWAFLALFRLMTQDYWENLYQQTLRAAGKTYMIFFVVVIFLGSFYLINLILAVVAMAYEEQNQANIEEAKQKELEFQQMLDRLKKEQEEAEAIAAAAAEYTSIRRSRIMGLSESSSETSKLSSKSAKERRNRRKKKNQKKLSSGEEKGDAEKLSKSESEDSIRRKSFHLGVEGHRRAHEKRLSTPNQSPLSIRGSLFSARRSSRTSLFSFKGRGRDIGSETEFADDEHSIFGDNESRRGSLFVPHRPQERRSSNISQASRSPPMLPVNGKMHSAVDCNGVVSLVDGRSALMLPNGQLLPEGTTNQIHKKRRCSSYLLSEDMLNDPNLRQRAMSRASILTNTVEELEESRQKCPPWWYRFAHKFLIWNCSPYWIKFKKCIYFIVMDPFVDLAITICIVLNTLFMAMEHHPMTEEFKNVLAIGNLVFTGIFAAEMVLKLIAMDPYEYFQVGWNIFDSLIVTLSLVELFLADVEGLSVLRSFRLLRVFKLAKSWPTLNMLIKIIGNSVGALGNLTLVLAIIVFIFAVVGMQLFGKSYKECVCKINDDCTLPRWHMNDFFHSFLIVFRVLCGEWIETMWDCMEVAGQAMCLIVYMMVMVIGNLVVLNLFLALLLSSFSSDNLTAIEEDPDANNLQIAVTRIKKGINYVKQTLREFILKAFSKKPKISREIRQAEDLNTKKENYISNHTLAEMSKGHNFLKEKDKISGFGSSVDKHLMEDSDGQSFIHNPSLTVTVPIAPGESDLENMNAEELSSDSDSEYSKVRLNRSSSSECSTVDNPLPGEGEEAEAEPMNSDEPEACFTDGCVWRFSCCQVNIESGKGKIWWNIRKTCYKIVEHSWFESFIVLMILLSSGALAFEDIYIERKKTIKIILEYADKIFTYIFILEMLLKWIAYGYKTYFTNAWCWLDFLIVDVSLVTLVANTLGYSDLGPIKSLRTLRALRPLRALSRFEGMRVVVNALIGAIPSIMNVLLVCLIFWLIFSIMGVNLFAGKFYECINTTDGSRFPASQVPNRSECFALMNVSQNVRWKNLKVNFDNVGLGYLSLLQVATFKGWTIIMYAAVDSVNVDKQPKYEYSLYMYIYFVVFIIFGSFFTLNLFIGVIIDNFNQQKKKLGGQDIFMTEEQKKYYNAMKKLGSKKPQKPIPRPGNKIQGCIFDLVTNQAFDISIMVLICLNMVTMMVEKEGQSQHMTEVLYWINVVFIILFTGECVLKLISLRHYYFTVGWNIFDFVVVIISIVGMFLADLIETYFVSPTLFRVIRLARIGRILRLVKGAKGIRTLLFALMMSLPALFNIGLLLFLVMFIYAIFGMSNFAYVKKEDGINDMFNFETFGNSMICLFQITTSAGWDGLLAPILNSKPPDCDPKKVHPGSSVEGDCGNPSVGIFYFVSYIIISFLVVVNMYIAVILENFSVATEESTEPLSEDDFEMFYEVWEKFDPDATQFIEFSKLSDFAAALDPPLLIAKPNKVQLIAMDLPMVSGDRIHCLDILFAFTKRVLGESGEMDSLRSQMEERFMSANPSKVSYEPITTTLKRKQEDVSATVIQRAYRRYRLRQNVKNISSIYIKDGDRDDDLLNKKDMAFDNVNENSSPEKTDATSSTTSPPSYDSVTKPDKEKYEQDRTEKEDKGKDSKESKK
The target in test [2] is hNav1.7 (Homo sapiens (Human), UniProt Q15858). The test is described as follows: Electrophysiology (EP) assay, whole-cell patch clamp. It is filed as cell-based. To be noted: whole-cell patch clamp, hNav1.7 expressing HEK-293 cells; read-out: EP Nav1.7 Ki. As to the method:
Cells: The hNav1.7 expressing HEK-293 cells were plated on 35 mm culture dishes pre-coated with poly-D-lysine in standard DMEM culture media (Mediatech, Inc., Herndon, Va.) and incubated in a 5% CO2 incubator at 37° C. Cultured cells were used approximately 12-48 hours after plating.
Electrophysiology: On the day of experimentation, the 35 mm dish was placed on the stage of an inverted microscope equipped with a perfusion system that continuously perfuses the culture dish with fresh recording media. A gravity driven superfusion system was used to apply test solutions directly to the cell under evaluation. This system consists of an array of glass pipette glass connected to a motorized horizontal translator. The outlet of the shooter was positioned approximately 100 μm from the cell of interest.
Gigaseals were formed and the whole-cell configuration was established in voltage clamp mode, and membrane currents generated by hNav1.7 were recorded in gap-free mode. […] Signals were sampled at 50 kHz and low pass filtered at 3 kHz.
The voltage clamp protocol to examine hNav1.7 currents was as follows. First, the standard current-voltage relationship was tested by pulsing the cell from the holding voltage (Vh) of −120 mV by a series of 5 msec long square-shaped test pulses incrementing in +10 mV steps over the membrane voltage range of −90 mV to +60 mV at the pace of stimulation of 0.5 Hz. This procedure determines the voltage that elicits the maximal current (Vmax). […] This procedure determines the voltage of full inactivation (Vfull). Third, the cell was repeatedly stimulated with the following protocol, first in the absence of the test compound then in its presence. The protocol consisted of depolarizing the cell from the holding potential of −120 mV to the Vfull value for 4.5 seconds then repolarizing the cell to the holding potential for 10 ms before applying the test pulse to the Vmax for 5 ms. The amount of inhibition produced by the test compound was determined by comparing the current amplitude elicited by the test pulse in the absence and presence of the compound.
Vehicle solution used to establish base line was also contacting 0.3% DMSO.
Data analysis: Data was analyzed off-line using Clampfit software (pClamp, v. 8; Axon Instruments) and graphed using GraphPad Prizm (v. 4.0) software.

The subject of test [3] is spinal nerve ligation (SNL; Chung model of neuropathic pain). The test is described as follows: Mechanical hyperalgesia (paw withdrawal threshold) in the Chung spinal nerve ligation model. The format is in vivo. Conditions: rats, intraperitoneal (i.p.) administration, from 1 to 3 hours. As to the method:
Test Animals: Each experiment uses rats weighing between 200-260 g at the start of the experiment. The rats are group-housed and have free access to food and water at all times, except prior to oral administration of a test compound when food is removed for 16 hours before dosing. A control group acts as a comparison to rats treated with a compound of Formulae I-XX. The control group is administered the carrier as used for the test compound. The volume of carrier administered to the control group is the same as the volume of carrier and test compound administered to the test group.
In the Chung model, the spinal nerve ligation model of neuropathic pain was used to produce mechanical hyperalgesia, thermal hyperalgesia and tactile allodynia in rats. […] The animals were assessed for response to noxious mechanical stimuli by determining PWT, as described below, prior to surgery (baseline), then immediately prior to and 1, 3, and 5 hours after being administered a compound of Formulae I-XX for the left rear paw of the animal. The animals can also be assessed for response to noxious thermal stimuli or for tactile allodynia, as described below. […]
Mechanical Hyperalgesia: Sensitivity to noxious mechanical stimuli can be measured in animals using the paw pressure test to assess mechanical hyperalgesia. […] PWT is determined once for each rat at each time point. […]

As usually defined, the IC50 is the concentration that inhibits the measured activity by half. In general, Ki refers to the equilibrium dissociation constant of an inhibitor or competing ligand from its target.

Chain of hNav1.7 (Q15858 other isoform, or with tags, fused parts or gaps): as above

In the case of `N#Cc1cc(Oc2ccc(-n3cc(C[C@H](N)CO)c4ccccc43)cc2)ccc1C(F)(F)F` [Compound 47, (S)-5-{4-[3-(2-Amino-3-hydroxypropyl)-1H-indol-1-yl]phenoxy}-2-(trifluoromethyl)benzonitrile], the concentration for half-maximal inhibition (IC50) in test [1] came out at 0.213 ± 0.052 µM. In test [2], the Ki amounted to 160 nM. The “reversal of mechanical hyperalgesia” value in test [3] was 10%-25%.
